{"source": "patent EP0423240B1", "about": "“MODULATION OF VIRUS-HOST CELL INTERACTIONS USING CYCLIC OLIGOSACCHARIDES” (THE TRUSTEES OF THE UNIVERSITY OF PENNSYLVANIA, priority 1988, dated 1990)", "key": {"HTLV III WMJ": {"tested_on": "HTLV III WMJ", "experiment": "Fusion inhibition (syncytia) assay, Sup-T1 cells with WMJ infected H9 cells", "assay_type": "cell-based, HIV-1", "set-up": "key to Degree of Syncytia Formation: 4=Full; 0=None; S=Small; M=Medium; L=Large", "settings": "for Degree of Syncytia Formation: degree and size of syncytia", "procedure": "The fusion inhibition (syncytia) assay was performed according to published procedures (Dalgleish et al., Nature 312:763, (1984) and Sodroski et al., Nature 322: 470, (1986)). Sup-T1 cells are favored target cells for their rapid degree of cell fusion when co-cultured with HIV-1 producing cell lines. Cell culture is performed according to the method of Dalgleish et al. (Nature 312:763, (1984)). Sup-T1 cells are plated in 96 well plates (10⁵ cells/well in RPMI 1640 + 10% FCS) and incubated with or without dilutions of beta-cyclodextrin tetradecasulfate (β-CD-TDS or β-CD-14S) at 37°C. HTLV-III B (HIV-1) or WMJ infected H9 cells are then added 5x10⁴/well and the number of multinucleated giant cells per 16 X field counted with a Zeiss inverted field phase contrast microscope after 18 hours. Syncytia are easily identified and inhibition of syncytia by different dilutions of β-CD-TDS can be compared with to β-CD-TDS free preparations. It will be apparent to those skilled in the art, that the formation of syncytia between cells susceptible of infection by HIV-1 and cells expressing HIV-1 envelope glycoproteins represents the same molecular phenomena involved in infection by HIV-1, but is far less hazardous and may be employed to study the mechanisms of infection and the effects of modulating factors on HIB-1 intracellular infection mechanisms, without fear of exposure to the virus itself.\nFor screening of different dilutions, 10-fold dilutions of a 150 micromolar solution of β-CD-TDS were prepared and directly added to syncytia assays as described above.\n(§1) For the assay of HIV-1 fusion, Supt T1 cells were used as target cells. They fuse rapidly when cocultured with HIV-1 (H9/IIIb) producing cell lines. For the assay of HIV-2 mediated cell fusion, H9 cells were used as target cells. They fuse rapidly when cocultured with HIV-2 (CEMROD-2) producing cell lines. HIV infected cells were plated in 96 well plates (10⁴ cells/well in RPMI 1640 + 10% FCS) and incubated with or without dilution of compounds for 30 minutes at 37°C. Target cells are then added 5 x 10⁵/well and the number of syncytia are qualitatively determined after the incubation periods described in the text.\nIn a series of preliminary experiments, a syncytia assay induced by HIV-1 fusion of Sup-T1 cells was performed as described in Section 6.1.1, supra."}, "[1]": {"tested_on": "HTLV-IIIb cell free virus", "experiment": "Reverse transcriptase assay of HIV infectivity, cell free virus on target cells, 10 day incubation", "assay_type": "cell-based, HIV-1", "procedure": "Figure 2 illustrates the effects of cyclodextrin and cyclodextrin derivatives on HIV infectivity as determined by reverse transcriptase activity. Samples assayed are (A) untreated control cells, (B) β-cyclodextrin unsubstituted ring, (C) partially sulfated β-cyclodextrin ring, (D) propylated β-cyclodextrin ring, (E) sulfated β-cyclodextrin ring, and (F) methylated β-cyclodextrin ring. Numbers indicate 1/2 dilutions of test compounds with 1 = 2.5 mM concentration of compound.\nVirus infected cells were pelleted by centrifugation and 50 µl of culture suprenatant was collected from each well for assay. Culture supernatant (25 µl) was plated in 96 well round bottomed plates and 50 µl of transcriptase cocktail was added to each well. Cocktail is 50 mM Tris-HC1, pH 8.0, 20 mM DTT, 0.6 mM MnC1₂, 60 mM NaC1, 0.05% NP-40, 5 µg/ml dt (oligodeoxythymidilic acid), 10 µg/ml poly A (polyriboadenylic acid), 10 µM dTTP, 1 Ci/mm ³²P dTTP. Plates were then incubated for 60 minutes at 37°C. After incubation samples were spotted onto Whatman DEAE-81 paper, washed and analyzed by counting or direct autoradiography.\nThe ability of cyclodextrins to inhibit HIV infection was assessed in vitro utilizing reverse transcriptase assays as described Section 6.1.2, supra. HTLV-IIIb cell free virus stocks were inoculated onto target cells in the presence or absence of the synthetic compounds."}, "HIV": {"tested_on": "HIV", "experiment": "Reverse transcriptase assay after prolonged culture (6 days with compound, further 10 days in fresh media)", "assay_type": "cell-based", "settings": "then 10 days in fresh media", "procedure": "Figure 6 compares the effects of dextran polysulfate and substituted β-cyclodextrins on HIV infectivity. In (A) degree of syncytia inhibition is shown on the ordinate for each compound added. SUL = 600 µM β-CD-14S, AL = 600 µM unsubstituted β-CD, Pro = 600 µM propoxylated β-CD, 2MET = 300 µM methoxylated β-CD, DS5 = 600 µM dextran sulfate 5,000, DS500 = 600 µM dextran sulfate 500,000. Results for each of 3 time points are shown. In (B) similar results utilizing reverse transcriptase assays are shown. Infectious virus particles were incubated in the presence of sulfated β-cyclodextrin (lane 1), dextran sulfate 5000 (lane 2) or media (lane 3) for 6 days at which time cells were resuspended in fresh media and allowed to incubate a further 10 days before being harvested. Reverse transcriptase activity was assayed as described in Section 6.1, infra. 1/2 dilutions of the compound added are shown from bottom (highest concentration at 2.5 mM) to top (lowest concentration).\nVirus infected cells were pelleted by centrifugation and 50 µl of culture suprenatant was collected from each well for assay. Culture supernatant (25 µl) was plated in 96 well round bottomed plates and 50 µl of transcriptase cocktail was added to each well. […] After incubation samples were spotted onto Whatman DEAE-81 paper, washed and analyzed by counting or direct autoradiography. […]"}, "Water solubility at 0°C": {"experiment": "Water solubility at 0°C", "assay_type": "physicochemical", "procedure": "The cyclic oligosaccharide derivatives useful in the present invention are highly hydrophilic and therefore very water soluble. A highly hydrophilic character probably is important to allow interaction with cellular surfaces. The hydrophilic activity is likely roughly indicated by the affinity to water, as measured by water solubility. It is important to measure the same at 0°C since at higher temperatures the most suitable derivative have solubilities so high that meaningful measurements are difficult."}, "HIV-1": {"tested_on": "HIV-1", "experiment": "HIV-1 induced syncytia assay, IIIb infected H9 cells cocultured with Supt-1 target cells", "assay_type": "cell-based", "set-up": "key to number of syncytia formed: 4 being multiple syncytia widely distributed; 0 indicating no syncytia observed; s=small; m=medium; L=large syncytia", "settings": "for number of syncytia formed: HIV-1, number and size of syncytia", "procedure": "as §1\nIn a series of additional experiments, analysis of HIV-1 induced syncytia was performed by coculturing H9 cells infected with the IIIb isolate with uninfected Supt-1 (a human CD4+ T cell line) cells as targets. […]"}}, "data": [{"substance": "beta-cyclodextrin tetradecasulfate [Beta-CD-14S]", "values": [{"measurement": "Degree of Syncytia Formation", "setting": "HTLV III WMJ; 0.15 micromolar β-CD-TDS", "value": 4, "unit": "L"}, {"measurement": "inhibition of syncytia formation", "setting": "HTLV III WMJ; 0.15 micromolar, text summary of Table 1 (both strains)", "value": "no inhibition of syncytia formation was observed"}, {"measurement": "Degree of Syncytia Formation", "setting": "HTLV III WMJ; 1.50 micromolar β-CD-TDS", "value": 3, "unit": "M"}, {"measurement": "Degree of Syncytia Formation", "setting": "HTLV III WMJ; 15.0 micromolar β-CD-TDS", "value": 1, "unit": "S"}, {"measurement": "Degree of Syncytia Formation", "setting": "HTLV III WMJ; 150 micromolar β-CD-TDS", "value": 0}, {"measurement": "Degree of Syncytia Formation", "setting": "HTLV III WMJ; 1500 micromolar β-CD-TDS", "value": 0}, {"measurement": "inhibition of syncytia", "setting": "HTLV III WMJ; between 1.5 micromolar and 1500 micromolar, text summary of Table 1 (both strains)", "value": "inhibition of syncytia was observed"}, {"measurement": "inhibition of viral infectivity (reverse transcriptase activity)", "setting": "[1]; 1/2 dilutions from 2.5 mM, result in words", "value": "extremely effective"}, {"measurement": "concentrations at which some reverse transcriptase activity was apparent", "setting": "[1]; dilution 4", "value": "≤ 320", "unit": "µM"}, {"measurement": "concentrations at which reverse transcriptase activity was dramatically inhibited", "setting": "[1]; dilution 6", "value": "≥ 80", "unit": "µM"}, {"measurement": "anti-viral activity (reverse transcriptase activity)", "setting": "HIV", "value": "significant anti-viral activity even after prolonged periods of tissue culture"}, {"measurement": "Solubility 0°C", "setting": "Water solubility at 0°C", "value": 42, "unit": "g/100ml H₂O"}, {"measurement": "number of syncytia formed", "setting": "HIV-1; 1.3 mM", "value": 0}, {"measurement": "number of syncytia formed", "setting": "HIV-1; 2.5 mM", "value": 0}, {"measurement": "number of syncytia formed", "setting": "HIV-1; .01 mM", "value": 4, "unit": "L"}, {"measurement": "number of syncytia formed", "setting": "HIV-1; .02 mM", "value": 4, "unit": "L"}, {"measurement": "number of syncytia formed", "setting": "HIV-1; .04 mM", "value": 3, "unit": "L"}, {"measurement": "number of syncytia formed", "setting": "HIV-1; .08 mM", "value": 2, "unit": "m"}, {"measurement": "number of syncytia formed", "setting": "HIV-1; .16 mM", "value": 1, "unit": "s"}, {"measurement": "number of syncytia formed", "setting": "HIV-1; .32 mM", "value": 0}, {"measurement": "number of syncytia formed", "setting": "HIV-1; .63 mM", "value": 0}, {"measurement": "inhibiting syncytia formation of HIV-1", "setting": "HIV-1; result in words", "value": "extremely high antisyncytia activity"}]}]}
